Measured values published in patent US5138069A (E. I. Du Pont de Nemours and Company, priority 1988, dated 1992).

System: Renal Hypertensive Rats
Test: Antihypertensive effects in renal hypertensive rats
Format: in vivo
Settings: Rattus norvegicus; for minimal effective dose at 10 mg/kg / minimal effective dose at 100 mg/kg: Table 25; for minimal effective dose at 10 mg/kg / minimal effective dose at 3 mg/kg: intravenous; for minimal effective dose at 10 mg/kg: 10 mg/kg or less; for minimal effective dose at 100 mg/kg / minimal effective dose at 30 mg/kg: oral; for minimal effective dose at 100 mg/kg: 100 mg/kg or less; for minimal effective dose at 3 mg/kg / minimal effective dose at 30 mg/kg: Table 26
Protocol: This procedure increases blood pressure by increasing renin production with consequent elevation of AII levels. Compounds are administered orally at 100 mg/kg and/or intravenously via a cannula in the jugular vein at 10 mg/kg. Arterial blood pressure is continuously measured directly through a carotid artery cannula and recorded using a pressure transducer and a polygraph. Blood pressure levels after treatment are compared to pretreatment levels to determine the antihypertensive effects of the compounds (See Table 25).
Compounds listed in Table 26 were tested in the same manner as described for Table 25, except that in the test for antihypertensive effects in renal hypertensive rats, the compounds were administered orally at 30 mg/kg and intravenously at 3 mg/kg.

Row | SMILES | minimal effective dose at 10 mg/kg | minimal effective dose at 100 mg/kg | further results
1 | CCCCc1nc(Cl)c(CO)n1Cc1ccc(-c2occc2C(=O)O)cc1 (single isomer, unassigned) [Example 178, 2-n-Butyl-1-[4-(3-carboxyfuran-2-yl)benzyl]-4-chloro-5-(hydroxymethyl)imidazole] | < 10 mg/kg | < 100 mg/kg | 
2 | CCCCc1nc(Cl)c(CC(=O)O)n1Cc1ccc(C(=O)O)cc1 [Example 1, 2-Butyl-1-(4-carboxybenzyl)-4-chloroimidazole-5-acetic acid] | < 10 mg/kg | > 100 mg/kg | 
3 | CCCCc1nc(Cl)c(CC(=O)OC)n1Cc1ccc(NC(=O)c2ccccc2C(=O)O)cc1 [Example 2, Methyl 2-butyl-1-[4-(2-carboxybenzamido)benzyl]-4-chloroimidazole-5-acetate] |  |  | minimal effective dose at 10 mg/kg (tested as sodium salt): < 10 mg/kg; minimal effective dose at 100 mg/kg (tested as sodium salt): > 100 mg/kg
4 | CCCCc1nc(Cl)c(COC)n1Cc1ccc(NC(=O)c2ccccc2C(=O)O)cc1 [Example 4, 2-Butyl-1-[4-(2-carboxybenzamido)benzyl]-4-chloro-5-(methoxymethyl)-imidazole] |  |  | minimal effective dose at 10 mg/kg (tested as sodium salt): < 10 mg/kg; minimal effective dose at 100 mg/kg (tested as sodium salt): > 100 mg/kg
5 | CCCCc1nc(Cl)c(CC(=O)OC)n1Cc1ccc(NC(=O)c2c(F)c(F)c(F)c(F)c2C(=O)O)cc1 [Example 8] |  |  | minimal effective dose at 100 mg/kg (tested as sodium salt): > 100 mg/kg
6 | CCCCc1nc(Cl)c(COC)n1Cc1ccc(NC(=O)c2c(Cl)ccc(Cl)c2C(=O)O)cc1 [Example 17] |  |  | minimal effective dose at 10 mg/kg (tested as sodium salt): < 10 mg/kg; minimal effective dose at 100 mg/kg (tested as sodium salt): > 100 mg/kg
7 | CCCCc1nc(Cl)c(COC)n1Cc1ccc(NC(=O)c2ccccc2S(=O)(=O)O)cc1 [Example 18a] |  |  | minimal effective dose at 3 mg/kg: < 3 mg/kg; minimal effective dose at 30 mg/kg: < 30 mg/kg
8 | CCCCc1nc(Cl)c(CO)n1Cc1ccc(-c2cccc(C(=O)O)c2)cc1 [Example 85, 1-[(3'-Carboxybiphenyl-4-yl)-methyl]-2-butyl-4-chloro-5-hydroxymethylimidazole] | < 10 mg/kg | < 100 mg/kg | 
9 | CCCCc1nc(Cl)c(COC)n1Cc1ccc(-c2cccc(C(=O)O)c2)cc1 [Example 86, 1-[(3'-Carboxybiphenyl-4-yl)-methyl]-2-butyl-4-chloro-5-methoxymethylimidazole] | < 10 mg/kg | > 100 mg/kg | 
10 | CCCCc1nc(Cl)c(CO)n1Cc1ccc(-c2ccccc2-c2nnn[nH]2)cc1 [Example 89, 2-n-butyl-4-chloro-5-hydroxymethyl-1-[(2'-(1H-tetrazol-5-yl)biphenyl-4-yl)methyl]imidazole] | < 10 mg/kg | < 100 mg/kg | 
11 | CCCCc1nc(C(F)(F)F)c(CO)n1Cc1ccc(-c2ccccc2-c2nnn[nH]2)cc1 [Example 92B, 2-butyl-5-hydroxymethyl-1-[(2'-(1H-tetrazol-5-yl)biphenyl-4-yl)methyl]-4-trifluoromethylimidazole] |  |  | minimal effective dose at 3 mg/kg: < 3 mg/kg
12 | CCCSc1ncc(CO)n1Cc1ccc(-c2ccccc2C(=O)O)cc1 [Example 93, 1-[(2'-carboxybiphenyl-4-yl)-methyl]-2-propylthio-5-hydroxymethylimidazole] | < 10 mg/kg | > 100 mg/kg | 
13 | CCCCc1nc(Cl)c(COC)n1Cc1ccc(-c2ccccc2C(=O)O)cc1 [Example 98] |  |  | minimal effective dose at 10 mg/kg (tested as sodium salt): < 10 mg/kg; minimal effective dose at 100 mg/kg (tested as sodium salt): < 100 mg/kg
14 | CCCCCCc1nc(Cl)c(CO)n1Cc1ccc(-c2ccccc2C(=O)O)cc1 [Example 110] | < 10 mg/kg | < 100 mg/kg | 
15 | CCCCc1nc(Cl)c(COC(C)=O)n1Cc1ccc(-c2ccccc2C(=O)O)cc1 [Example 121] | < 10 mg/kg | < 100 mg/kg | 
16 | CCCCc1nc(Br)c(CO)n1Cc1ccc(-c2ccccc2-c2nn[nH]n2)cc1 [Example 124C] |  |  | minimal effective dose at 3 mg/kg: < 3 mg/kg; minimal effective dose at 30 mg/kg: < 30 mg/kg
17 | CCCCc1nc(I)c(CO)n1Cc1ccc(-c2ccccc2-c2nnn[nH]2)cc1 [Example 124L] |  |  | minimal effective dose at 3 mg/kg: < 3 mg/kg; minimal effective dose at 30 mg/kg: < 30 mg/kg
18 | CCCCc1nc(Cl)c(C=O)n1Cc1ccc(-c2ccccc2C(=O)O)cc1 [Example 125, 1-[(2'-carboxybiphenyl-4-yl)methyl]-2-butyl-4-chloroimidazole-5-carboxaldehyde] | < 10 mg/kg | < 100 mg/kg | 
19 | CC/C=C/c1nc(Cl)c(CO)n1Cc1ccc(-c2ccccc2C(=O)O)cc1 [Example 128, 1-[(2'-Carboxybiphenyl-4-yl)-methyl]-2-(1-trans-butenyl)-4-chloro-5-hydroxymethylimidazole] | < 10 mg/kg | < 100 mg/kg | 
20 | CC/C=C/c1nc(Cl)c(C=O)n1Cc1ccc(-c2ccccc2C(=O)O)cc1 [Example 129, 1-[(2'-Carboxybiphenyl-4-yl)methyl]-2-(1-trans-butenyl)-4-chloroimidazole-5-carboxaldehyde] | < 10 mg/kg | < 100 mg/kg | 

Row | SMILES | minimal effective dose at 10 mg/kg | minimal effective dose at 100 mg/kg | further results
21 | CCCc1nc(C(F)(F)C(F)(F)F)c(C=O)n1Cc1ccc(-c2ccccc2-c2nnn[nH]2)cc1 [Example 140G] |  |  | minimal effective dose at 30 mg/kg: < 30 mg/kg
22 | CCCCc1nc(Cl)c(COC)n1Cc1ccc(-c2ccccc2NS(=O)(=O)C(F)(F)F)cc1 [Example 141, 1-[(2'-trifluoromethanesulfonamidobiphenyl-4-yl)methyl]-2-butyl-4-chloro-5-methoxymethylimidazole] | < 10 mg/kg | < 100 mg/kg | 
23 | CCCCc1nc(Cl)c(CO)n1Cc1ccc(-c2ccccc2NS(=O)(=O)C(F)(F)F)cc1 [Example 144] | < 10 mg/kg | < 100 mg/kg | 
24 | CCCCc1nc(Cl)c(COC)n1Cc1ccc(-c2ccccc2C(=O)Nc2nnn[nH]2)cc1 [Example 173, 2-n-Butyl-4-chloro-5-methoxymethyl-1-[(2'-((tetrazol-5-yl)aminocarbonyl)biphenyl-4-yl)-methyl]imidazole] |  |  | minimal effective dose at 10 mg/kg (tested as sodium salt): < 10 mg/kg
25 | CCCCc1nc(Cl)c(CO)n1Cc1ccc(-c2ccccc2C(=O)NOC)cc1 [Example 180, 1-[(2'-Methoxyaminocarbonylbiphenyl-4-yl)methyl]-2-butyl-4-chloro-5-hydroxymethylimidazole] | < 10 mg/kg | > 100 mg/kg | 
26 | CCCCc1nc(Cl)c(CO)n1Cc1ccc(-c2ccccc2NC(=O)C(F)(F)F)cc1 [Example 183, 1-[(2'-Trifluoroacetamidobiphenyl-4-yl)methyl]-2-butyl-4-chloro-5-hydroxymethylimidazole] | < 10 mg/kg | > 100 mg/kg | 
27 | CCCCc1nc(Cl)c(CO)n1Cc1ccc(Oc2ccccc2C(=O)O)cc1 [Example 184, 2-Butyl-4-chloro-1-[4-(2-carboxyphenoxy)benzyl]-5-hydroxymethylimidazole] | < 10 mg/kg | > 100 mg/kg | 
28 | CCCCc1nc(Cl)c(CO)n1Cc1ccc(Sc2ccccc2C(=O)O)cc1 [Example 185] | < 10 mg/kg | > 100 mg/kg | 
29 | CCCCc1ncc(CO)n1Cc1ccc(OCc2ccccc2C(=O)O)cc1 [Example 193, 1-[4-(2-Carboxybenzyloxy)-benzyl] -2-butyl-5-hydroxymethylimidazole] | < 10 mg/kg | > 100 mg/kg | 
30 | CCCCc1nc(Cl)c(CO)n1Cc1ccc(OCc2ccccc2C(=O)O)cc1 [Example 195] | < 10 mg/kg | < 100 mg/kg | 
31 | CCCCc1nc(Cl)c(COC(C)=O)n1Cc1ccc(OCc2ccccc2C(=O)O)cc1 [Example 199] |  | > 100 mg/kg | 
32 | CCCCc1nc(Cl)c(CO)n1Cc1ccc(C(=O)c2ccccc2C(=O)O)cc1 [Example 202, 2-Butyl-1-[4-(2-Carboxybenzoyl)benzyl]-4-chloro-5-(hydroxymethyl)imidazole] |  |  | minimal effective dose at 10 mg/kg (tested as sodium salt): < 10 mg/kg; minimal effective dose at 100 mg/kg (tested as sodium salt): > 100 mg/kg
33 | CCCCc1nc(CO)c(Cl)n1Cc1ccc(C(=O)c2ccccc2C(=O)O)cc1 [Example 203] |  |  | minimal effective dose at 10 mg/kg (tested as sodium salt): < 10 mg/kg; minimal effective dose at 100 mg/kg (tested as sodium salt): < 100 mg/kg
34 | CCCCc1nc(Cl)c(COC)n1Cc1ccc(C(=O)c2ccccc2C(=O)O)cc1 [Example 207] |  |  | minimal effective dose at 10 mg/kg (tested as sodium salt): < 10 mg/kg; minimal effective dose at 100 mg/kg (tested as sodium salt): < 100 mg/kg
35 | CCCCc1nc(Cl)c(C(=O)O)n1Cc1ccc(-c2ccccc2-c2nn[nH]n2)cc1 [Example 252] |  |  | minimal effective dose at 3 mg/kg: < 3 mg/kg; minimal effective dose at 30 mg/kg: < 30 mg/kg
36 | CCCc1nc(C(F)(F)C(F)(F)F)c(C(=O)O)n1Cc1ccc(-c2ccccc2-c2nn[nH]n2)cc1 [Example 265C] |  |  | minimal effective dose at 3 mg/kg: < 3 mg/kg
37 | CCCCc1nc(Cl)c(CO)n1Cc1ccc(-c2ccccc2C(=O)NS(=O)(=O)c2ccccc2)cc1 [Example 318, 1-[(2'-(Benzenesulfonamidocarbonyl)biphenyl-4-yl)methyl]-2-butyl-4-chloro-5-hydroxymethylimidazole] | < 10 mg/kg | > 100 mg/kg | 
38 | CCCc1nc(-c2ccccc2)c(C=O)n1Cc1ccc(-c2ccccc2C(=O)O)cc1 [Example 322] |  |  | minimal effective dose at 3 mg/kg: < 3 mg/kg; minimal effective dose at 30 mg/kg: < 30 mg/kg
39 | CCCCc1nc(CO)c(Cl)n1Cc1ccc(-c2ccccc2-c2n[nH]c(C(F)(F)F)n2)cc1 [Example 341, 2-n-Butyl-5-chloro-4-hydroxy-methyl-1-[(2'-(5-trifluoromethyl-1,2,4-triazol-3-yl)biphenyl-4-yl)methyl]imidazole] | < 10 mg/kg | < 100 mg/kg | 
